Converted amounts (≈) assume the structure as drawn. Like-named read-outs stand apart in the source and are kept apart here.
Tests used:
Kinetic solubility assay = format: physicochemical; details: PBS buffer pH 7.4 with 2% DMSO, aqueous buffer, kinetic from dmso stock, PBS buffer pH 7.4, 2% DMSO, RT, read-out: KSol
Description: Samples were prepared by adding 4 μL of the 10 mM compound DMSO stock solutions into 196 μL of PBS buffer pH 7.4 in the 96 well filter plates, yielding a compound concentration of 200 μM and 2% DMSO. The PBS buffer pH7.4 was prepared by Genentech media lab. Filter plates were sealed with aluminum sealing film and shaken at RT at 1000 rpm. After 24 h, the solutions were filtered into a clean 96 well plates utilizing a vacuum manifold. After filtration, some precipitate was often observed at the bottom of the filtration plate wells. Most of the precipitates appeared to be crystalline under a polarizing light microscope. […]
Samples were detected and analyzed using UV 254 nm and CLND. UV 254 nm is used primarily to confirm the sample purity but in rare cases, is also used to quantify the concentration of compounds with no nitrogens, where additional work was done to create a compound specific calibration curve. […] Sample quantification was accomplished by CLND peak intensity, the calibration curve, and the number of nitrogen contained in the compound. One calibration curve of caffeine was used for solubility quantitative determination. […] The number of nitrogens in a compound used for this quantification needs to be corrected for the actual configuration of the nitrogen in the compound. […]

USP7 = USP7 (Homo sapiens (Human), UniProt Q93009); test: USP7 fluorescence polarisation (FP) biochemical assay, ubiquitin-Lys-TAMRA substrate; details: read-out: USP7 IC50
Outline: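 Full-length His6-USP7 (2.5 nM) incubated ± inhibitor (8-point dilutions, 200 to 0.1 μM before addition) in 50 mM HEPES pH 7.2, 150 mM NaCl, 0.5 mM EDTA, 5 mM DTT, 0.05% BSA, 0.05% CHAPS. Ubiquitin-Lys-TAMRA cleavage followed by FP (ex 530/em 575 nm) every 15 min for 1.5 h; normalised to no-compound control.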

LNCaP cells = test: LNCaP proliferation assay (CellTiter-Glo); format: cell-based; details: Homo sapiens, Table 1, cell viability after 168 h
Description: LNCaP cells from ATCC, were seeded in 96 well plate format (typically 2500 cells/well) in their growth media (RPMI, Life Technologies #52400-025+10% Fetal Calf Serum, Life Technologies #10500-064) and treated after 24 h with increasing concentration of compound from 0 to 30 μM. Cell viability was assessed after 168 h by CellTiter-Glo® as recommended by the manufacturer's instructions (Promega). Analysis and EC50 values were derived using GraphPadPrism.

HCT116 cells = test: p53, p21 and MDM2 protein levels by western blotting in HCT116; format: cell-based; details: HCT116, 24 h treatment
SJSA-1 cells = test: p53, p21 and MDM2 protein levels by western blotting in SJSA-1; format: cell-based; details: SJSA-1, 24 h treatment
Description: This osteosarcoma cell line with a known functional p53 pathway was used as a second model for these experiments. Cells were treated as described above and samples analysed by western blotting as indicated. Similar observations were made with stabilisation of p53, p21 induction and MDM2 decreased levels in a concentration dependent manner.
p53, p21 and MDM2 Protein Levels

[1] = Table 4, biochemical assay, average of at least duplicate experiments
[2] = Table 1, R9a = H versus R9a = Cl

USP7, sequence (Q93009 whole entry): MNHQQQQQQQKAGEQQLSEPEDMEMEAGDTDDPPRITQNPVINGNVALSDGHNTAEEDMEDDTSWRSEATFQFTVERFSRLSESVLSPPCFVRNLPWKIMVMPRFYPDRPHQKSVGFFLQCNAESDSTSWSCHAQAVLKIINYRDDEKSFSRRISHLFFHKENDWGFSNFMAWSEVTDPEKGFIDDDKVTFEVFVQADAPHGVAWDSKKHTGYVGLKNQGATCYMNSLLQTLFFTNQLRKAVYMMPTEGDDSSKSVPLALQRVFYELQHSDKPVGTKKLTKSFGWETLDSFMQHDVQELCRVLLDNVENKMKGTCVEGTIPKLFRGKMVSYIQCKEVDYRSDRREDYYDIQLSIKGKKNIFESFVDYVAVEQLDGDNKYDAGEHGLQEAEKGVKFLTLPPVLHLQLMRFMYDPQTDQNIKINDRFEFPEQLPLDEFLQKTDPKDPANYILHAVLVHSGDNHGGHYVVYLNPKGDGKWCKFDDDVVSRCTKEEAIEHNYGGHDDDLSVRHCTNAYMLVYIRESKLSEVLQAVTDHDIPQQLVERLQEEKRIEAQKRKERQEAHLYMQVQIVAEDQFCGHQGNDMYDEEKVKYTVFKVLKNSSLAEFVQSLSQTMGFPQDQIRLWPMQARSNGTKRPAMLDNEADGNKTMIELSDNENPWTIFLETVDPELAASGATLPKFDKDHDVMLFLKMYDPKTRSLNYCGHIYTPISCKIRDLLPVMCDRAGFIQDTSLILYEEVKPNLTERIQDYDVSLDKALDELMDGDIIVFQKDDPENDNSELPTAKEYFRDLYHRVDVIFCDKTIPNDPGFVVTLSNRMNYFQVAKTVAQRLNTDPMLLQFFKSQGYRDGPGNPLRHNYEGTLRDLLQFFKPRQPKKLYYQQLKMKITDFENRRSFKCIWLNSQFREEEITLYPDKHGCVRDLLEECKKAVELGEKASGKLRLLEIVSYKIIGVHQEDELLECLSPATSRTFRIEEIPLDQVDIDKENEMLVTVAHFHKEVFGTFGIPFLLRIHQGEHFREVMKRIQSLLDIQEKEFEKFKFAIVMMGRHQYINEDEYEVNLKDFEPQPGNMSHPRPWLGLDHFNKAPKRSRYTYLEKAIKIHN

SMILES	solubility kinetic at 24 h (Kinetic solubility assay)	IC50 (USP7; [1])	IC50 (USP7; [2])	EC50 (LNCaP cells)	p53, p21 and MDM2 protein levels (HCT116 cells)	p53, p21 and MDM2 protein levels (SJSA-1 cells)
CC1(C(=O)N2CCC(O)(Cn3cnc4c(cc(Cl)n4-c4ccccc4)c3=O)CC2)CC1 [Example 200, 6-Chloro-3-((4-hydroxy-1-(1-methylcyclopropanecarbonyl)piperidin-4-yl)methyl)-7-phenyl-3H-pyrrolo[2,3-d]pyrimidin-4(7H)-one]	173 µM (≈ 76.3 µg/mL)	250 to 999 nM				
CC1(C(=O)N2CCC(O)(Cn3cnc4c(cc(Cl)n4-c4ccc(Cl)cc4)c3=O)CC2)CC1 [Example 203, 6-Chloro-7-(4-chlorophenyl)-3-((4-hydroxy-1-(1-methylcyclopropanecarbonyl)piperidin-4-yl)methyl)-3H-pyrrolo[2,3-d]pyrimidin-4(7H)-one]		< 250 nM	220 nM	22 nM		
Cn1cc(-c2cccc(-n3c(Cl)cc4c(=O)n(CC5(O)CCN(C(=O)C6(C)CC6)CC5)cnc43)c2)cn1 [Example 212, 6-Chloro-3-((4-hydroxy-1-(1-methylcyclopropanecarbonyl)piperidin-4-yl)methyl)-7-(3-(1-methyl-1H-pyrazol-4-yl)phenyl)-3H-pyrrolo[2,3-d]pyrimidin-4(7H)-one]		< 250 nM	140 nM	55 nM		
CC1(C(=O)N2CCC(O)(Cn3cnc4c(cc(Cl)n4-c4ccc5c(c4)OCO5)c3=O)CC2)CC1 [Example 202, 7-(Benzo[d][1,3]dioxol-5-yl)-6-chloro-3-((4-hydroxy-1-(1-methylcyclopropanecarbonyl)piperidin-4-yl)methyl)-3H-pyrrolo[2,3-d]pyrimidin-4(7H)-one]		250 to 999 nM	250 nM	51 nM		
C[C@H](CC(=O)N1CCC(O)(Cn2cnc3c(-c4cccc(N)c4)n(C)nc3c2=O)CC1)c1ccccc1 [Example 29, (R)-3-(3-Aminophenyl)-6-((4-hydroxy-1-(3-phenylbutanoyl)piperidin-4-yl)methyl)-2-methyl-2H-pyrazolo[4,3-d]pyrimidin-7(6H)-one]					dose-dependent p53 stabilisation, p21 induction and concomitant decrease in MDM2 levels	dose-dependent p53 stabilisation, p21 induction and concomitant decrease in MDM2 levels

Reference: patent US10766903B2 (ALMAC DISCOVERY LIMITED, priority 2016, dated 2020)
